Measured values published in US7723289B2, “PIF tetrapeptides” (BioIncept, LLC, priority 2003, dated 2010).
Like-named read-outs stand apart in the source and are kept apart here.

Columns and labels:
PBMC [1] = details: PHA +
Protocol: sPIF-115 (SEQ ID NO:13) effect was tested on a patient with over 14 miscarriages and no live birth. Their immune cells were examined in the non-pregnant state, by exposure to sPIF-115 (SEQ ID NO:13) using PBMC preparations. Induction of PIF receptor expression, and binding to lymphocytes were used to characterize the treated cells.

[2] = tested on: PIF-1 polyclonal antibody; assay: PIF-1 competitive ELISA, biotin labeled versus unlabeled peptide; assay type: binding, rabbits; details: 4.5 ug/ml pAb coating concentration; read-out: IC50 of dose response curve
PBMC [3] = assay: PIF-1 effects on cytokine expression in patient and control PBMC (Table 7); assay type: cell-based, human; details: for TH1/TH2 change in parentheses: PHA + PIF-115 + vs PHA + alone; for IL-10 / TH1/TH2 / TNFα: PHA +, PIF-115 +
PBMC [4] = assay: FITC-labeled PIF binding to PBMC subpopulations (flow cytometry); design: species or system human
Protocol: Expression of PIF-1(15) (SEQ ID NO:1), receptor following PHA induced PBMC proliferation CD-4 T cells; CD-8 T cells; NK cell and B cells (unstimulated-top); (PHA stimulated-bottom). Flow cytometry analysis of PBMC following exposure to FITC sPIF-1(15) (SEQ ID NO:13) % expression was determined in PBMC subtypes before and after exposure to 1 ug/ml PHA for 24 hours.
Human PBMC were isolated by the Ficoll method. FITC-labeled nPIF-115 (SEQ ID NO: 1) and (FITC)-labeled scrPIF-1 (SEQ ID NO:5) and match-size irrelevant peptide (FITC)-labeled negative controls negPIF-1(15) (SEQ ID NO:11), were dissolved in PBS at concentrations ranging from 0.75 to 48.19 μM, and were incubated with 500,000 lymphocytes for 1 h at room temperature. The cells were washed 6 times with PBS and resuspended in 500 μl of the same buffer. T-cells and monocytes identification was performed in independent experiments by incubation with anti-CD3 and anti-CD14 antibody-phycoerithryn (PE) labeled. nPIF-115 (SEQ ID NO: 1) binding to PBMC was determined by flow cytometry. In addition, rosettes formed by T cell-platelets were detected by flow cytometry using anti-CD3 antibody-PE and anti-CD41a antibody-FITC (all antibodies were from Pharmingen Inc.).
Using flow cytometry fluoroscein-labeled sPIF-115 (SEQ ID NO: 13) binding to immune cells was examined on resting PBMC.

CD3 = CD3 expression in PBMC (flow cytometry, MAbCD3-PE); assay type: cell-based; details: PBMC exposed 3 days, 2-200 nM
Protocol: Fluorescent PIF peptides bind to immune cell membranes following activation. […] CD69 is expressed during activation of lymphocytes and monocytes, and is a marker of NK cells activation. CD25 is the receptor for IL-2, and a known activation marker as well. […] The expression of CD3 in PBMC was examined following exposure for 3 days to sPIF-1(15) (SEQ ID NO:13) (2-200 nM) using 20 ul MAbCD3-PE (BD).

PBMC [5] = assay: Cytokine release (ELISA) and intracellular cytokine staining in stimulated PBMC; assay type: cell-based, human
Protocol: FIG. 2. sPIF-1(15) (SEQ ID NO:13) increases the percentage of PBMC that contain TH2 type cytokines (IL10, IL 4), while scrPIF-1(15) (SEQ ID NO: 5) has a TH1 bias (INFgamma). Isolated PBMC were stimulated by PHA (1 ug/ml) and cultured 2-4 days with sPIF-1(15) (SEQ ID NO:13) or scrPIF-1(15) (SEQ ID NO:5). 30 nM. PBMC cytokines content was determined by specific staining using flow cytometry. Effect of PIF-1 on cellular content of cytokines of PBMC was examined up to 96 hours and a time dependent pattern emerged, not replicated by scrambled or irrelevant peptide. Measurements were carried out in two separate stages. At the cellular induction/synthetic level, lymphocytes were cultured in the presence of PHA for various periods with or without PIF-1 then processed for intracellular immunostaining (activation by PMA plus ionomycin in the presence of monenisn and berfeldin, followed by permeabilization and immunostaining) for the detection of nascent cytokines.
Human PBMC were isolated and cultured for 2-4 days in AIM-V medium containing 0 to 200 nM of sPIF-115 (SEQ ID NO:13) or scrPIF-115 (SEQ ID NO:5). The following proliferation-activating agents were used: anti-CD3 antibody (10 μg/ml solution) bound on the plate wells in the presence or absence of IL-2 at 10 μg/ml; phytohemmaglutinin (PHA) at 4 μg/ml. The effects of sPIF-115 (SEQ ID NO:13) or scrPIF-115 (SEQ ID NO:5) peptides were also determined by the mixed lymphocyte reaction (MLR) after 3 days in heterologous cultures of PBMC with cells previously treated with mitomycin C (100 μg/ml for 4 h). Cell proliferation was determined by tritiated thymidine incorporation (16 h) of 72-h culture. Cytokine release (IL-4, IL-10, IFN-γ and TNF-α) into culture supernatants was determined at 72 h of culture by ELISA (R&D System).

[6] = PBMC within 24 hrs of PHA activation

MVRIKPGSANKPSDD [sPIF-1(15)]
(PIF+/CD4+)/CD4+ (PBMC [1]; Control specimen): 22.1
(PIF+/CD4+)/CD4+ difference in parentheses (PBMC [1]; Control specimen): 0%
(PIF+/CD8+)/CD8+ (PBMC [1]; Control specimen): 24.5
(PIF+/CD19+)/CD19+ (PBMC [1]; Control specimen): 46.2
(PIF+/CD4+)/CD4+ (PBMC [1]; Patient specimen): 16.2
(PIF+/CD8+)/CD8+ (PBMC [1]; Patient specimen): 16.3
(PIF+/CD19+)/CD19+ (PBMC [1]; Patient specimen): 48.2
(PIF+/CD4+)/CD4+ difference in parentheses (PBMC [1]; Patient vs control): −27%
(PIF+/CD8+)/CD8+ difference in parentheses (PBMC [1]; Patient vs control): −33%
IC50 [2]: 0.5 to 0.7 nM
TH1/TH2 change in parentheses (PBMC [3]; control): −19%
IL-10 (PBMC [3]; control): 28.18 % of total PBMC in scatter gate
TH1/TH2 (PBMC [3]; control): 0.55
TNFα (PBMC [3]; control): 15.46 % of total PBMC in scatter gate
TH1/TH2 change in parentheses (PBMC [3]; patient): +32%
IL-10 (PBMC [3]; patient): 24.32 % of total PBMC in scatter gate
TH1/TH2 (PBMC [3]; patient): 0.75
TNFα (PBMC [3]; patient): 18.32 % of total PBMC in scatter gate
fluorescence-labeled peptide binding to human lymphocytes (PBMC [4]; FIG. 1(A)): dose dependent manner
B cells positive for fluorescent PIF binding (PBMC [4]; [6]): > 90%
T lymphocytes positive for fluorescent PIF binding (PBMC [4]; [6]): 60-80%
binding to platelets (PBMC [4]; basal state): not to platelets
binding to monocytes (PBMC [4]; basal state, unstimulated PBMC): binds all monocytes
binding to NK cells (PBMC [4]; even after several days in culture with PHA): did not appear to bind
binding site expression on resting T cells (CD4+, CD8+), B cells (CD19+), NK cells (CD56) (PBMC [4]; resting PBMC): very low
increase in CD3 receptor expression (CD3): 215-420%
percentage of PBMC that contain TH2 type cytokines (IL10, IL 4) (PBMC [5]; PHA 1 ug/ml, 2-4 days, 30 nM, flow cytometry): increases
IFN-γ decrease (PBMC [5]; one day after IL-10 increase): 30%
increase in number of IL-10 secreting cells (PBMC [5]; starting at day 2, peaking at days 3-4): 50-60%
increase of TH2/TH1 cytokine ratio in PBMC (PBMC [5]; stimulated PBMC): more than five-fold
IFN-γ release in culture supernatants (PBMC [5]; stimulated PBMC, 72 h, ELISA): significantly decreased
IL-4 release (PBMC [5]; stimulated PBMC, 72 h, ELISA): does not have a significant effect
IL-10 release in culture supernatants (PBMC [5]; stimulated PBMC, 72 h, ELISA): significantly increased
TNF-α release (PBMC [5]; stimulated PBMC, 72 h, ELISA): does not have a significant effect
